Test results taken from US20100069244A1, “Pyridine Compounds for Combating Pests” (priority 2006, published 2010).

Test system: Colorado Potato Beetle (Leptinotarsa decemlineata)
Assay: Activity against Colorado potato beetle, potato leaf dip
Format: in vivo
Settings: foliar, 120 h, read-out: mortality compared to 0% mortality of untreated controls
Description: 6. Activity Against Colorado Potato Beetle (Leptinotarsa decemlineata)
Potato plants were utilized for bioassays. Excised plant leaves were dipped into 1:1 acetone/water dilutions of the active compounds. After the leaves had dried, they were individually placed onto water-moistened filter paper on the bottoms of Petri dishes. Each dish was infested with 5 to 7 larvae and covered with a lid. Each treatment dilution was replicated 4 times. Test dishes were held at approximately 27° C. and 60% humidity. Numbers of live and morbid larvae were assessed in each dish at 5 days after treatment application, and percent mortality was calculated.

Structure (SMILES): CC(C)N1CC[C@H]1COc1cncc(Cl)c1 [Ia-155, 3-Chloro-5-((S)-1-isopropyl-azetidin-2-ylmethoxy)-pyridine]
- mortality at 300 ppm: > 50%
